Test results from patent US20160022720A1, “COMPOSITIONS AND METHODS FOR TREATING DISEASE STATES ASSOCIATED WITH ACTIVATED T CELLS AND/OR B CELLS” (priority 2013, published 2016).
“Also recorded” adds a separate entry of the source.

What was measured:
activated T cells (P14) = assay type: cell-based, mice; conditions: for killing of activated T cells in vitro: agent itself, overnight culture
activated T cells [1] = system: activated T cells; design: species or system mice; conditions: mouse
activated T cells [2] = assay type: cell-based, mice; conditions: culture of activated T cells with agent
[3] = system: reactivated memory T cells; experiment: Depletion of memory T cells reactivated in vivo with liposomal GP33 peptide in WT mice; conditions: etoposide 100 mg/kg/dose x2, or etoposide 25 mg/kg/dose + nutlin 50 mg/kg x4
[4] = system: LCMV-infected prf−/− mice; conditions: mouse, in vivo
HLH = HLH patients, etoposide-based therapy, increased from approximately 0%; cited from earlier work
[5] = system: experimental autoimmune encephalitis; conditions: in vivo

COc1ccc(C2=NC(c3ccc(Cl)cc3)C(c3ccc(Cl)cc3)N2C(=O)N2CCNC(=O)C2)c(OC(C)C)c1 (stereo not drawn) [nutlin]
potentiation of etoposide killing of activated T cells in vitro (activated T cells (P14)): dramatically shifts the etoposide:death, dose:response curve | potentiation of low dose etoposide for depletion of activated T cells in vivo (activated T cells [1]): potentiates etoposide immunomodulation in vivo

NC(=O)Nc1cc(-c2cccc(F)c2)sc1C(=O)N[C@H]1CCCNC1 [AZD7762]
potentiation of etoposide killing of activated T cells in vitro (activated T cells (P14)): potentiate etoposide killing of activated T cells in vitro | killing of activated T cells in vitro (activated T cells (P14)): kill activated T cells in vitro; also recorded: selectively kill activated T cells | potentiation of low dose etoposide for depletion of activated T cells in vivo (activated T cells [1]): strongly synergizes with etoposide in vivo | DNA damage (gammaH2AX) in activated T cells in vitro (activated T cells [2]): leads to accumulation of spontaneous DNA damage; also recorded: led to increasing DNA damage

C=CCn1c(=O)c2cnc(Nc3ccc(N4CCN(C)CC4)cc3)nc2n1-c1cccc(C(C)(C)O)n1 [MK-1775]
potentiation of etoposide killing of activated T cells in vitro (activated T cells (P14)): potentiate etoposide killing of activated T cells in vitro | killing of activated T cells in vitro (activated T cells (P14)): selectively kill activated T cells

O=C1C(Cl)=C(N2CCOCC2)C(=O)N1c1ccc(Cl)c(Cl)c1 [Ri-1, 3-chloro-1-(3,4-dichlorophenyl)-4-morpholino-1H-pyrrole-2,5-dione]
potentiation of etoposide killing of activated T cells in vitro (activated T cells (P14)): substantial synergy with etoposide in vitro | killing of activated T cells in vitro (activated T cells (P14)): kill activated T cells in vitro

COc1cc([C@@H]2c3cc4c(cc3[C@@H](O[C@@H]3O[C@@H]5CO[C@@H](C)O[C@H]5[C@H](O)[C@H]3O)[C@H]3COC(=O)[C@H]23)OCO4)cc(OC)c1O [etoposide]
depletion of reactivated memory T cells in vivo [3]: ablated | inflammatory cytokines/disease-specific inflammatory markers [4]: decreased inflammatory cytokines/disease-specific inflammatory markers | pancytopenia [4]: alleviated pancytopenia | survival / rescue from HLH-like disease [4]: allowed survival; also recorded: rescues LCMV-infected prf−/− mice from HLH-like disease | long-term survival (HLH): 55% | therapeutic effect in experimental autoimmune encephalitis [5]: highly therapeutic

NC(=O)C1CCCc2c1[nH]c1ccc(Cl)cc21 (stereo not drawn) [Ex527]
potentiation of etoposide killing of activated T cells in vitro (activated T cells (P14)): enhance etoposide killing of activated T cells in vitro

CCOc1cc(/C=C2/C(=O)N(c3ccccc3)N=C2C)cc(Cl)c1OCC(=O)OC [Sj-172550]
potentiation of etoposide killing of activated T cells in vitro (activated T cells (P14)): enhance etoposide killing of activated T cells in vitro
